Data reported in article PMC10135569, “Does Enhanced Structural Maturity of hiPSC-Cardiomyocytes Better for the Detection of Drug-Induced Cardiotoxicity?” (Biomolecules, 2023).

Key:
[1] = system: hiPSC-CMs (iCell2 Cardiomyocytes) 2D monolayers; assay: Contractility measurements using video imaging (ContractilityTool / MUSCLEMOTION); format: cell-based, human; conditions: for activity at 0.01 µM / activity at 0.03 µM / activity at 0.1 µM / activity at 0.3 µM: Homo sapiens, Cardiomyocyte, 0.5 h, 30 min, delta over DMSO 0.1%
Experimental: (§1) Cardiomyocytes (FUJIFILM Cellular Dynamics, Madison, WI, USA) were kept at −190 °C and prepared for culture as per the manufacturer’s instructions.
(§2) Standard fibronectin vs. Matrix Plus well coating: The cells were cultured using two different coatings in a humidified incubator at 37 °C with 5% CO2. First, 96-well glass-bottomed plates (MatTek, Ashland, MA) were coated with fibronectin ([…] in PBS supplemented with Ca^2+ and Mg^2+; Sigma, St. Louis, MO, USA) (defining FM). Second, CELLvo^TM Matrix Plus (StemBioSys, San Antonio, TX, USA), which were pre-coated on 96 well glass bottom plates and kept at 4 °C. On the day of plating, CELLvo^TM Matrix Plus plates were transferred to room temperature, rehydrated with phosphate buffer saline (PBS), incubated for 1 h at 37 °C, and washed 2× with PBS. Cells were introduced at a density of 50,000 cells/well to allow the formation of a confluent monolayer in each well (defined as MM). The maintenance protocols followed the manufacturer’s instructions and used the iCell^2 Cardiomyocytes Maintenance media for media changes every 2 days. Experiments were performed between days 5 and 6, as recommended by the manufacturers. Before beginning an experiment, cells were washed in serum-free media (SF media) (Fluorobrite DMEM, Gibco, Thermo Fisher Scientific, Horsham, UK).
(§3) The drug powders were dissolved in DMSO, and four stock concentrations at 1000× the final target concentration were prepared in DMSO. For the experiment, an intermediate concentration 2× the target solution was prepared in SF media. The addition of drugs to the cells was accomplished by replacing 50% of the well volume with the intermediate 2× solution. The same procedure was done for vehicle control using DMSO. The experimental number n = 8/concentration/testing compound in the FM or MM condition, and n = 36 for each positive or negative control in the FM or MM condition.
(§4) The dye FluoVolt is loaded into the surface membrane (outer leaflet), and the dye remains within the membrane for many dots, allowing intermittent voltage measurements over the experimental period. In this study, measurements were restricted to within 30 mins of application of the drug. The measurements were made on the same area before/after drug/DMSO addition. […] Baseline spontaneous electrical activity and the associated contractility signal were recorded by capturing 10 s segments of fluorescent signal and video for 2D plates and 15 s for organoids from each well prior to compound addition. Drugs were tested at four concentrations in n = 8 independent replicates (i.e., 8 wells from a single plating) at each concentration. A vehicle control was included for each drug. A 10 s or 15 s recording was then taken 30 min after exposure to the drug or vehicle with only one concentration applied/well. Offline analysis was performed using proprietary software (CellOPTIQ®).
Short periods (10 s or 15 s) of video were analyzed using the ContractilityTool application (developed by F.L. Burton), which is an implementation of the MUSCLEMOTION algorithm.

[2] = system: hiPSC-CMs (iCell2 Cardiomyocytes) 2D monolayers; assay: Membrane potential (action potential) recordings with FluoVolt voltage-sensitive dye on the CellOPTIQ platform; format: cell-based, human; conditions: for activity at 0.01 µM / activity at 0.03 µM / activity at 0.1 µM / activity at 0.3 µM: Homo sapiens, Cardiomyocyte, 0.5 h, 30 min, delta over DMSO 0.1%
Experimental: as §1, §2, §3
Cultures of hiPSC-CMs (5–6 days post-plating) were treated with FluoVolt dye (1:1000, Invitrogen, Cat# F10488) in SF media and incubated for 20 min at 37 °C with 5% CO2 and 80% humidity. Multi-well plates were placed in the environmentally controlled stage incubator (37 °C, 5% CO2, water-saturated air atmosphere) (Okolab Inc. Burlingame, CA) of the CellOPTIQ® platform (Clyde Biosciences Ltd., Glasgow, Scotland). The FluoVolt signal was recorded from a 0.2 mm × 0.2 mm area using a 40× (numerical aperture: NA 0.6) Excitation wavelength was 470 ± 10 nm using a light-emitting diode (LED), and emitted light was collected by two photomultipliers (PMTs) at 510–560 nm (channel 1) and 590–650 nm (channel 2), respectively. LED, PMT, and associated power supplies and amplifiers were supplied by Cairn Research Ltd. (Kent, UK) and digitized at 10 kHz and stored on a computer hard drive. In the case of FluoVolt-based action potential recordings, the short wavelength (channel 1, […]) was analyzed for action potential features.
as §4, with “applied/well.” for “applied/well. Offline analysis was performed using proprietary software (CellOPTIQ®).”

[3] = 300 nM, both 2D systems, positive control
[4] = FM monolayer, read-out: CtAmp (%DD)
[5] = FM monolayer, read-out: CtD50 (%DD)
[6] = MM monolayer, read-out: CtAmp (%DD)
[7] = MM monolayer, read-out: CtD50 (%DD)
[8] = FM monolayer, read-out: APD30 (%DD)
[9] = FM monolayer, read-out: APD90 (%DD)
[10] = FM monolayer, read-out: CL (%DD)
[11] = FM monolayer, read-out: Trise (%DD)
[12] = MM monolayer, read-out: APD30 (%DD)
[13] = MM monolayer, read-out: APD90 (%DD)
[14] = MM monolayer, read-out: CL (%DD)
[15] = MM monolayer, read-out: Trise (%DD)

CC(C)NCC(O)c1ccc(O)c(O)c1 (stereo not shown) [Isoprenaline]
effect on contraction duration [1, 3]: decreased
activity at 0.01 µM [1, 4]: 94 ± 5.2%
activity at 0.01 µM [1, 5]: 94 ± 1%
activity at 0.03 µM [1, 4]: 90 ± 8.3%
activity at 0.03 µM [1, 5]: 88 ± 4.6%
activity at 0.1 µM [1, 4]: 125 ± 17.9%
activity at 0.1 µM [1, 5]: 76 ± 2.8%
activity at 0.3 µM [1, 4]: 68 ± 8.5%
activity at 0.3 µM [1, 5]: 58 ± 1.6%
activity at 0.01 µM [1, 6]: 123 ± 14.4%
activity at 0.01 µM [1, 7]: 96 ± 2.3%
activity at 0.03 µM [1, 6]: 112 ± 11.7%
activity at 0.03 µM [1, 7]: 88 ± 2.3%
activity at 0.1 µM [1, 6]: 121 ± 16.1%
activity at 0.1 µM [1, 7]: 68 ± 2.7%
activity at 0.3 µM [1, 6]: 105 ± 14.9%
activity at 0.3 µM [1, 7]: 57 ± 1.8%
effect on APD90 [2, 3]: decreased
effect on spontaneous beat rate [2, 3]: increased
activity at 0.01 µM [2, 8]: 97 ± 2%
activity at 0.01 µM [2, 9]: 94 ± 1.9%
activity at 0.01 µM [2, 10]: 90 ± 1.4%
activity at 0.01 µM [2, 11]: 80 ± 7.3%
activity at 0.03 µM [2, 8]: 85 ± 1.7%
activity at 0.03 µM [2, 9]: 77 ± 0.6%
activity at 0.03 µM [2, 10]: 74 ± 0.6%
activity at 0.03 µM [2, 11]: 97 ± 8.6%
activity at 0.1 µM [2, 8]: 68 ± 0.8%
activity at 0.1 µM [2, 9]: 60 ± 1%
activity at 0.1 µM [2, 10]: 56 ± 0.6%
activity at 0.1 µM [2, 11]: 106 ± 4.5%
activity at 0.3 µM [2, 8]: 62 ± 1%
activity at 0.3 µM [2, 9]: 52 ± 0.5%
activity at 0.3 µM [2, 10]: 49 ± 0.6%
activity at 0.3 µM [2, 11]: 106 ± 8.1%
activity at 0.01 µM [2, 12]: 92 ± 0.8%
activity at 0.01 µM [2, 13]: 96 ± 0.8%
activity at 0.01 µM [2, 14]: 90 ± 0.9%
activity at 0.01 µM [2, 15]: 146 ± 13.3%
activity at 0.03 µM [2, 12]: 83 ± 0.9%
activity at 0.03 µM [2, 13]: 86 ± 1%
activity at 0.03 µM [2, 14]: 77 ± 0.6%
activity at 0.03 µM [2, 15]: 115 ± 12.9%
activity at 0.1 µM [2, 12]: 68 ± 1.5%
activity at 0.1 µM [2, 13]: 68 ± 1.2%
activity at 0.1 µM [2, 14]: 63 ± 0.8%
activity at 0.1 µM [2, 15]: 93 ± 5.5%
activity at 0.3 µM [2, 12]: 62 ± 0.8%
activity at 0.3 µM [2, 13]: 61 ± 0.9%
activity at 0.3 µM [2, 14]: 56 ± 0.8%
activity at 0.3 µM [2, 15]: 129 ± 10.9%
effect on APD90 (in words) ([2]; both FM and MM monolayers, concentration not given): significantly decreased
